This is an account of results in article PMC5881522, “Molecular Defects in Cardiac Myofilament Ca^2+-Regulation Due to Cardiomyopathy-Linked Mutations Can Be Reversed by Small Molecules Binding to Troponin” (Frontiers in Physiology, 2018).

By pEC50 is commonly meant the negative decadic logarithm of the EC50, by convention in mol/L.

pEC50: −log10 of the molar value. Entries after “also recorded” stand apart in the source; their conditions may differ. Where only a bound is given, the exact number is not on record here.

Assay [1] deals with T1, tropomyosin E180G mutant-containing thin filaments (Homo sapiens, UniProt P19429+P45379+P63316).
T1 construct: isolate troponin from 100 mg of donor heart tissue; from tissue; host or cells: troponin: human donor heart; tropomyosin: baculovirus/Sf9 (gift); actin: rabbit fast-twitch skeletal muscle
As to the kind of experiment: Single [Ca2+] in vitro motility assay screen for re-coupling. Format: biochemical. To be noted: for Coupling Difference (Initial Screen E180G): 100 μM compound, difference between motility (%) in phosphorylated and unphosphorylated thin filaments, TPM1 E180G, >10% = re-coupling; for Coupling Difference (Initial Screen E180G) / re-coupling activity (in words): 0.037 μM Ca2+; for re-coupling activity (in words): E180G thin filaments. The protocol: (§1) Thin filaments were reconstituted with 10 nM rabbit skeletal or mouse cardiac muscle α-actin (labeled with TRITC phalloidin), tropomyosin (40–60 nM), and troponin (60 nM) to study Ca^2+-regulation of filament motility by the quantitative in vitro motility assay (IVMA) (Fraser and Marston, [1995]; Messer et al., [2007]). Thin filament movement over a bed of immobilized rabbit fast skeletal muscle heavy meromyosin (100 μg/ml) was compared in paired motility cells, in which troponin varied by a single factor (mutation, phosphorylation state, or treatment with drug). The temperature was set to 29°C. Filament movement was recorded and analyzed as previously described (Marston et al., [1996]), yielding two parameters, the fraction of filaments moving and the speed of moving filaments. Only the fraction of filaments motile is used in this study.
For drug screening, motility was measured with paired phosphorylated and unphosphorylated tropomyosin E180G mutant-containing thin filaments at a fixed 0.037 μM Ca^2+. Most assays were single measurements.
For the rapid screening of compounds, we devised a single Ca^2+ concentration assay. This is illustrated in Figures 2A,B for quercetin. The test system contains skeletal muscle actin, human sequence recombinant tropomyosin 1.1 containing the E180G HCM-associated mutation and human cardiac troponin from donor hearts in the phosphorylated and unphosphorylated form. At 0.037 μM Ca^2+ the filaments are about 40% motile irrespective of phosphorylation level whilst when quercetin is added the phosphorylated Ca^2+ activity curve shifts to the right and % motility at 0.037 μM Ca^2+ drops, whilst the unphosphorylated level is unchanged. We have set a difference between phosphorylated and unphosphorylated >10% as indicating re-coupling activity. This assay method can also be used to construct a dose-response curve as shown. We investigated compounds in 4 categories.
Figure 2 Single [Ca^2+] screen for re-coupling compounds. […] Solid lines, phosphorylated state; dotted lines, unphosphorylated state. Purple lines and points, E180G thin filaments; green lines and points, E180G thin filaments + Quercetin (B) Dose -response curve for quercetin recoupling activity measured at a constant concentration of 0.037 μM Ca^2+. INSET, kinetic analysis of dose response curve; difference between phosphorylated and unphosphorylated states is plotted against quercetin concentration. The Hill equation is fitted to the data, EC50 = 8 μM. (C,D) The effect of 100 μM drug treatment on the difference between % of motility of phosphorylated and unphosphorylated tropomyosin E180G mutant-containing thin filaments at 0.037 μM Ca^2+. (C) EGCG-related molecules (for structures 1–28 see Figure S1 and Table 1). (D) Silybin, related compounds and other HsP90 inhibitors and Ca^2+ desensitizers. The threshold for positive re-coupling was set at a 10% difference (dotted line).

Assay [2] concerns the target T2, thin filaments containing E180G tropomyosin (TPM1 E180G, HCM) (Homo sapiens, UniProt P19429+P45379+P63316).
T2 construct: isolate troponin from 100 mg of donor heart tissue; from tissue; host or cells: troponin: human donor heart; tropomyosin: baculovirus/Sf9 (gift); actin: rabbit fast-twitch skeletal muscle
As to the kind of experiment: IVMA Ca2+-activation curves, TPM1 E180G. Format: biochemical. The note with it: phosphorylated and unphosphorylated E180G tropomyosin thin filaments, 25 μM for Quercetin and ECG.
From the text: Recombinant human sequence tropomyosin was a gift from Kristen Nowak and Elyshia MacNamara, University, Western Australia. Wild-type α-tropomyosin (Tpm1.1) and mutant E180G tropomyosin were expressed in a baculovirus/Sf9 system (Akkari et al., [2002]; Marston et al., [2013]). Skeletal muscle F-actin and myosin were isolated from rabbit fast-twitch skeletal muscle as previously described (Messer et al., [2007]). TnC G159D mutant troponin was extracted from a mutant human heart sample (Dyer et al., [2009]), E99K mutant cardiac actin was extracted from the E99K transgenic mouse heart (Song et al., [2013]).
as §1
The fraction motile was measured over a range of Ca^2+ concentrations to generate Ca^2+-activation curves. The data were fitted to the 4-variable Hill equation to yield a value for EC50 and nH. Most assays of the effect of compounds are single measurements. […]

The test system of assay [3] is isolated cardiomyocytes from ACTC E99K HCM transgenic mice. As to the kind of experiment: Lusitropic effect of dobutamine in isolated cardiomyocytes. Format: cell-based. To be noted: blunted in ACTC E99K mouse cardiomyocytes; preliminary experiments.
From the text: The main effect of uncoupling of the modulation of Ca^2+ sensitivity by TnI phosphorylation is the loss of the lusitropic response to beta adrenergic stimulation, which is usually accompanied by blunting of the whole physiological adrenergic response.
The next assay concerns Hsp90. Also noted: method as in Khandelwal et al., 2013. To be noted: ref Khandelwal et al., 2013; read-out: EC50 Hsp90 inhibition assay; cited from earlier work.
The mark [4] stands for this setting: dose-response of % motility difference at 0.037 μM Ca2+, Hill fit.

`COc1cc([C@H]2Oc3cc(-c4oc5cc(O)cc(O)c5c(=O)c4O)ccc3O[C@@H]2CO)ccc1O` [Dehydrosilybin A, 2,3-dehydrosilybin A]: in assay [1], the “Coupling Difference (Initial Screen E180G)” value (from here on “Coupling Difference”) stood at 3% and the “re-coupling activity (in words)” value is listed as “poor recoupling molecule”. Also, the “effect on Ca2+-activation curves (desensitizer / re-coupler), in words” value (from here on “effect … (desensitizer / re-coupler), in words”) in assay [2] is given as “ineﬀective”.

Turning to `COc1cc([C@@H]2Oc3cc(-c4oc5cc(O)cc(O)c5c(=O)c4O)ccc3O[C@H]2CO)ccc1O` [Dehydrosilybin B, 2,3-dehydrosilybin B], in assay [1], the “Coupling Difference” value is 62% and the “re-coupling activity (in words)” value is on record as “restores coupling”. In assay [1] (setting [4]), this compound had a pEC50 of 4.33. The “effect … (desensitizer / re-coupler), in words” value in assay [2] is “pure recoupling”. The “effect … (desensitizer / re-coupler), in words” value in assay [2] (listed as dehydrosilybin B) is “recouples”.

Consider `O=C(O[C@@H]1Cc2c(O)cc(O)cc2O[C@@H]1c1ccc(O)c(O)c1)c1cc(O)c(O)c(O)c1` [Epicatechin Gallate], for which the “Coupling Difference” value in assay [1] is reported as 8%. In addition, the “effect … (desensitizer / re-coupler), in words” value in assay [2] (listed as ECG) is listed as “pure desensitizer; also recorded: desensitizer but not a recoupler”.

For `Oc1cc(O)c2c(c1)O[C@H](c1ccc(O)c(O)c1)[C@H](O)C2` [Epicatechin], the “Coupling Difference” value in assay [1] is reported as 69%.

With `Oc1cc(O)c2c(c1)O[C@H](c1cc(O)c(O)c(O)c1)[C@H](O)C2` [Epigallocatechin], the “Coupling Difference” value in assay [1] stood at 62%.

Consider `Oc1cc(O)c2c(c1)O[C@H](c1cc(O)c(O)c(O)c1)[C@@H](O)C2` [Gallocatechin], for which the “Coupling Difference” value in assay [1] is given as 68%.

`COc1cc(C2Oc3ccc([C@H]4Oc5cc(O)cc(O)c5C(=O)[C@@H]4O)cc3OC2CO)ccc1O` (stereo partly drawn) [Isosilybin]: the “Coupling Difference” value in assay [1] stood at 4%.

In the case of `CO[C@@H]1[C@@H](OC(N)=O)[C@@H](O)[C@H](Oc2ccc3c(O)c(NC(=O)c4ccc(O)c(CC=C(C)C)c4)c(=O)oc3c2C)OC1(C)C` [Novobiocin], in assay [1], the “Coupling Difference” value was determined as 46%.

`COC(=O)N1CCN(Cc2cccc(NC(=O)Nc3ccc(C)nc3)c2F)CC1` [Omecamtiv Mecarbil]: in assay [1], the “Coupling Difference” value came to 0% and the “re-coupling activity (in words)” value is listed as “do not re-couple”.

As to `COc1cc(/C=C/c2ccc(O)cc2)cc(OC)c1` [Pterostilbene], in assay [1], the “Coupling Difference” value is on record as 50% and the “re-coupling activity (in words)” value was “effective re-couplers”.

In the case of `O=c1c(O)c(-c2ccc(O)c(O)c2)oc2cc(O)cc(O)c12` [Quercetin], the “Coupling Difference” value in assay [1] was determined as 51%. Moreover, the pEC50 in assay [1] (setting [4]) was 5.10. Besides, in assay [2], the “effect … (desensitizer / re-coupler), in words” value is reported as “typical pure recoupler; also recorded: pure recoupling”.

On to `Oc1ccc(/C=C/c2cc(O)cc(O)c2)cc1` [Resveratrol], for which, in assay [1], the “Coupling Difference” value was 63% and the “re-coupling activity (in words)” value is given as “effective re-couplers”. For the same compound, in assay [3], the “lusitropic effect of dobutamine, in words” value is recorded as “restored”.

As for `COc1cc(C2Oc3cc([C@H]4Oc5cc(O)cc(O)c5C(=O)[C@@H]4O)ccc3OC2CO)ccc1O` (stereo partly drawn) [Silybin], the “Coupling Difference” value in assay [1] is recorded as 12.0%. In addition, the pEC50 in assay [1] (setting [4]) was 4.33.

With `COc1cc([C@@H]2Oc3c(O)cc([C@H]4Oc5cc(O)cc(O)c5C(=O)[C@@H]4O)cc3[C@H]2CO)ccc1O` [Silychristin], in assay [1], the “Coupling Difference” value is 35%.

On to `COc1cc([C@@H]2[C@H]3CO[C@@]4(O)C(=O)[C@@H]2C=C([C@H]2Oc5cc(O)cc(O)c5C(=O)[C@@H]2O)[C@@H]34)ccc1O` [Silydianin], for which the “Coupling Difference” value in assay [1] came out at 20%.

With `COc1ccc(-c2coc3cc(O[C@@H]4O[C@H](CO)[C@@H](O)[C@H](O)[C@H]4O)cc(O)c3c2=O)cc1` [Sissotrin], in assay [1], the “Coupling Difference” value was determined as 30%.

Consider `O=C1c2c(O)cc(O)cc2OC(c2ccc(O)c(O)c2)C1O` (stereo not drawn) [Taxifolin], for which the “Coupling Difference” value in assay [1] stood at 60%.

Regarding `NCCCCCCNS(=O)(=O)c1cccc2c(Cl)cccc12` [W-7], in assay [1], the “Coupling Difference” value stood at 50% and the “re-coupling activity (in words)” value is on record as “effective re-couplers”.

On to `COc1cccc(-c2cc(C(=O)OC3COc4cc(O)cc(O)c4C3)ccc2OC)c1` (stereo not drawn) [compound 2], for which, in assay [1], the “Coupling Difference” value came to 27.0%. Besides, in assay [1], the “re-coupling activity (in words)” value was “effective re-couplers”. The pEC50 in assay [1] (setting [4]) was 4.52; with Hsp90 it was 4.66.

In the case of `COc1cccc(C(=O)OC2COc3cccc(O)c3C2)c1` (stereo not drawn) [compound 4], the “Coupling Difference” value in assay [1] was 27.0%. Moreover, the pEC50 is 4.47 in assay [1] (setting [4]) and less than 4.00 with Hsp90.

On to `COc1ccc(C(=O)OC2COc3cc(OC)cc(OC)c3C2)cc1` (stereo not drawn) [compound 7], for which, in assay [1], the “Coupling Difference” value is on record as −11.0% and the “re-coupling activity (in words)” value is listed as “reverse effect”. For the same compound, in assay [1] (setting [4]), the pEC50 is 4.17. Also, the pEC50 in the assay on Hsp90 is 4.49.

In the case of `COc1cc(OC)c2c(c1)OCC(OC(=O)c1ccc(OC(C)=O)c(CC=C(C)C)c1)C2` (stereo not drawn) [compound 8], in assay [1], the “Coupling Difference” value was “No Effect” and the “re-coupling activity (in words)” value was “inactive”. Also, the pEC50 in the assay with Hsp90 was 4.42.

As for `COc1ccc(C(=O)OC2COc3cccc(O)c3C2)cc1` (stereo not drawn) [compound 9], the “Coupling Difference” value in assay [1] turned out to be 20.0%. Also, the pEC50 in assay [1] (setting [4]) is 4.46; in the assay with Hsp90 it was less than 4.00.

As to `O=C(O[C@H]1COc2cc(O)cc(O)c2C1)c1cccc(O)c1` [compound 12], the “Coupling Difference” value in assay [1] is −1.0%. In assay [1] (Hill coefficient of dose-response of % motility difference, 0.037 µM Ca2+), the “nH (Table 6-1, E180G + Drug)” value is given as “No%Eﬀect”. For the same compound, the “EC50 (Table 6-1, E180G + Drug)” value in assay [1] (difference between phosphorylated and dephosphorylated TPM1 E180G thin filaments, 0.037 µM Ca2+, Hill fit) was “No%Eﬀect”. Moreover, the “E180G EC50 % Motility Difference” value in assay [1] (setting [4]) is recorded as “No Effect”. In addition, the “Magnitute (% difference)” value in assay [1] (fitted magnitude of dose-response of % motility difference, 0.037 µM Ca2+) is given as “No%Eﬀect”. In addition, in the assay on Hsp90, the pEC50 is 4.20.

As for `CCOc1cccc(C(=O)OC2COc3cc(OC)cc(OC)c3C2)c1` (stereo not drawn) [compound 16], in assay [1], the “Coupling Difference” value stood at 6.0% and the “re-coupling activity (in words)” value is “inactive”. This compound also gave a pEC50 in assay [1] (setting [4]) of 4.51. Further, in the assay on Hsp90, the pEC50 was 5.10.

Regarding `COc1cc(OC)cc(C(=O)OC2COc3cc(OC)cc(OC)c3C2)c1` (stereo not drawn) [compound 19], in assay [1], the “Coupling Difference” value was 24.0% and the “re-coupling activity (in words)” value is “re-coupler”. Also, the pEC50 with Hsp90 is 4.68.
